Measurements: patent US20200261419A1, “COMBINATIONS FOR THE TREATMENT OF KIDNEY STONES” (Wake Forest University Health Sciences, priority 2015, published 2020)

Tests used:
[1] = target: T1, recombinant, human liver GO (the HAO1 gene product) (Homo sapiens, UniProt Q9UJM8); experiment: GO inhibition, coupled DCIP assay; format: biochemical; conditions: 37° C., 100 mM potassium phosphate pH 7.5, 75 μM DCIP, 3 mM glycolate; read-out: apparent Ki
T1 sequence (Q9UJM8 1-370): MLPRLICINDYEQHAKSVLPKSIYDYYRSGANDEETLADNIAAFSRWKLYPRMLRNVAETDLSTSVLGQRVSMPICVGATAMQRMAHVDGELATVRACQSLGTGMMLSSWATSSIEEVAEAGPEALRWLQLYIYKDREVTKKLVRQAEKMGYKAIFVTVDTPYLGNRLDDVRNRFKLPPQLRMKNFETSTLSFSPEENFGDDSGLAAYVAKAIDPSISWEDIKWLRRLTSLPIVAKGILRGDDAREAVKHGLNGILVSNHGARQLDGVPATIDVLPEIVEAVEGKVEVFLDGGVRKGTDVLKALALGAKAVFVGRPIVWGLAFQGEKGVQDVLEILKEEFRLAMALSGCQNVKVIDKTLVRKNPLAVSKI
Method: Testing of GO inhibitors. The inhibition of recombinant, human liver GO (the HAO1 gene product) is readily determined by a coupled assay that contains 2,6-dichloroindophenol (DCIP) (Murray et al. Biochemistry 47, 2439-2449, 2008). Briefly, GO is pre-incubated at 37° C. with or without inhibitor in 100 mM potassium phosphate pH 7.5 (0.1% DMSO final) for […]. An aliquot of pre-warmed DCIP and glycolate is added to start the reaction (final concentration 75 μM DCIP, 3 mM glycolate). The reaction rate is determined by monitoring the decrease at 600 nm (extinction coefficient of 21 mM^−1 cm^−1).

human HYPDH = target: T2, human HYPDH (Homo sapiens, UniProt Q9UF12); experiment: Anaerobic titration of the FAD spectrum of HYPDH; format: binding
T2 construct: Only the constructs containing the residues 147-515 and 156-515 were >96% loaded with FAD+ and active; made in house; host or cells: Escherichia coli
T2 sequence (Q9UF12 71-439 limits assumed): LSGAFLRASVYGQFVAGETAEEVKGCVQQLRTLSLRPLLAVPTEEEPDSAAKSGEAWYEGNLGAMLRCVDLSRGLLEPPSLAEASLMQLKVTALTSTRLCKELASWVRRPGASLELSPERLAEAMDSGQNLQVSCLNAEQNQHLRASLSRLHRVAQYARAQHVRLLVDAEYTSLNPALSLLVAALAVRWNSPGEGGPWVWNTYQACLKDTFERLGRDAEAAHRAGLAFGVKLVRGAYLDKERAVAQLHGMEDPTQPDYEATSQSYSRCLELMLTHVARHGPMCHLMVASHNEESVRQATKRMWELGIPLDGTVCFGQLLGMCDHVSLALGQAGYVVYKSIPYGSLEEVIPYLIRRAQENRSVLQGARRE

Ki [1] [µM] | SMILES | Kd (human HYPDH) [µM]
~0.015 | CCCCCCCCCCCCSc1snnc1C(=O)O [CDST] | 
 | O=C(O)[C@@H]1C[C@@H](O)CN1 [Hyp, Hydroxyproline] | 125
